{"source": "patent US8758816B2", "about": "“Compositions comprising azelastine and methods of use thereof” (priority 2004, dated 2014)", "test_system": "patients with seasonal allergic rhinitis (SAR)", "assay": "MP 428 study: adverse events, Safety Population", "assay_type": "in vivo, human", "method": "A two-week, randomized, double-blind study, which evaluated the effects of the co-administration of ASTELIN® (azelastine hydrochloride (HCl)) and FLONASE® (fluticasone propionate) compared to either product alone in patients with seasonal allergic rhinitis (SAR) was conducted during the 2006 Texas mountain cedar season. After a 5-day placebo lead-in period, 151 patients with moderate-to-severe allergic rhinitis symptoms were randomized to either: (1) (49 total patients) ASTELIN® (azelastine hydrochloride (HCl)) plus placebo saline nasal spray 2 sprays per nostril, 15 minutes apart, twice daily (AM & PM); (2) (50 total patients) FLONASE® (fluticasone propionate) plus placebo saline nasal spray, 2 sprays per nostril, 15 minutes apart, once daily (AM) and two sessions of placebo saline nasal spray, 2 sprays per nostril, 15 minutes apart (PM); or (3) (52 total patients) the co-administration of ASTELIN® (azelastine hydrochloride (HCl)) 2 sprays per nostril plus FLONASE® (fluticasone propionate) 2 sprays per nostril (AM), 15 minutes apart, and ASTELIN® (azelastine hydrochloride (HCl)) 2 sprays per nostril plus placebo saline nasal spray, 15 minutes apart, (PM) for a 2-week double-blind treatment period.\nThe most common adverse events (AEs) were bitter taste (8.2% in ASTELIN® (azelastine hydrochloride (HCl)) group, 2.0% in FLONASE® (fluticasone propionate) group, 13.5% in co-administration group) and headache (4.1% in ASTELIN® (azelastine hydrochloride (HCl)) group, 4.0% in FLONASE® (fluticasone propionate) group, 5.8% in co-administration group). No other AE was reported by more than one patient in any treatment group. There were no discontinuations due to AEs.", "key": {"[1]": {"details": "Total (possibly or probably related), Safety Population"}}}
{"compound": "CCC(=O)O[C@]1(C(=O)SCF)[C@H](C)C[C@H]2[C@@H]3C[C@H](F)C4=CC(=O)C=C[C@]4(C)[C@@]3(F)[C@@H](O)C[C@@]21C", "note": "[Fluticasone, fluticasone propionate]", "values": [{"measurement": "Treatment-Emergent AE: NECK PAIN", "setting": "Total", "result": "0 (0.0) No. of Patients (%)"}, {"measurement": "Treatment-Emergent AE: NERVOUS SYSTEM DISORDERS, Any Preferred Term", "setting": "Total", "result": "2 (4.0) No. of Patients (%)"}, {"measurement": "Treatment-Emergent AE: PHARYNGOLARYNGEAL PAIN", "setting": "Total", "result": "0 (0.0) No. of Patients (%)"}, {"measurement": "Treatment-Emergent AE: RESPIRATORY, THORACIC AND MEDIASTINAL DISORDERS, Any Preferred Term", "setting": "Total", "result": "0 (0.0) No. of Patients (%)"}, {"measurement": "Treatment-Emergent AE: STOMACH DISCOMFORT", "setting": "Total", "result": "1 (2.0) No. of Patients (%)"}, {"measurement": "Treatment-Related Adverse Events: Any Adverse Event", "setting": "[1]", "result": "4 (8.0) No. of Patients (%)"}, {"measurement": "Treatment-Related Adverse Events: DRY MOUTH", "setting": "[1]", "result": "1 (2.0) No. of Patients (%)"}, {"measurement": "Treatment-Related Adverse Events: DYSGEUSIA", "setting": "[1]", "result": "1 (2.0) No. of Patients (%)"}, {"measurement": "Treatment-Related Adverse Events: EPISTAXIS", "setting": "[1]", "result": "0 (0.0) No. of Patients (%)"}, {"measurement": "Treatment-Related Adverse Events: GASTROINTESTINAL DISORDERS, Any Preferred Term", "setting": "[1]", "result": "3 (6.0) No. of Patients (%)"}, {"measurement": "Treatment-Related Adverse Events: HEADACHE", "setting": "[1]", "result": "1 (2.0) No. of Patients (%)"}, {"measurement": "Treatment-Related Adverse Events: NASAL DISCOMFORT", "setting": "[1]", "result": "0 (0.0) No. of Patients (%)"}, {"measurement": "Treatment-Related Adverse Events: NERVOUS SYSTEM DISORDERS, Any Preferred Term", "setting": "[1]", "result": "1 (2.0) No. of Patients (%)"}, {"measurement": "Treatment-Related Adverse Events: RESPIRATORY, THORACIC AND MEDIASTINAL DISORDERS, Any Preferred Term", "setting": "[1]", "result": "0 (0.0) No. of Patients (%)"}, {"measurement": "Treatment-Related Adverse Events: STOMACH DISCOMFORT", "setting": "[1]", "result": "1 (2.0) No. of Patients (%)"}, {"measurement": "Treatment-Emergent AE: Any Adverse Event", "setting": "max severity Mild", "result": "4 (8.0) No. of Patients (%)"}, {"measurement": "Treatment-Emergent AE: DRY MOUTH", "setting": "max severity Mild", "result": "1 (2.0) No. of Patients (%)"}, {"measurement": "Treatment-Emergent AE: DYSGEUSIA", "setting": "max severity Mild", "result": "1 (2.0) No. of Patients (%)"}, {"measurement": "Treatment-Emergent AE: EAR AND LABYRINTH DISORDERS, Any Preferred Term", "setting": "max severity Mild", "result": "0 (0.0) No. of Patients (%)"}, {"measurement": "Treatment-Emergent AE: EAR PAIN", "setting": "max severity Mild", "result": "0 (0.0) No. of Patients (%)"}, {"measurement": "Treatment-Emergent AE: EPISTAXIS", "setting": "max severity Mild", "result": "0 (0.0) No. of Patients (%)"}, {"measurement": "Treatment-Emergent AE: GASTROINTESTINAL DISORDERS, Any Preferred Term", "setting": "max severity Mild", "result": "2 (4.0) No. of Patients (%)"}, {"measurement": "Treatment-Emergent AE: HEADACHE", "setting": "max severity Mild", "result": "2 (4.0) No. of Patients (%)"}, {"measurement": "Treatment-Emergent AE: MUSCULOSKELETAL AND CONNECTIVE TISSUE DISORDERS, Any Preferred Term", "setting": "max severity Mild", "result": "0 (0.0) No. of Patients (%)"}, {"measurement": "Treatment-Emergent AE: MYALGIA", "setting": "max severity Mild", "result": "0 (0.0) No. of Patients (%)"}, {"measurement": "Treatment-Emergent AE: NASAL DISCOMFORT", "setting": "max severity Mild", "result": "0 (0.0) No. of Patients (%)"}, {"measurement": "Treatment-Emergent AE: NECK PAIN", "setting": "max severity Mild", "result": "0 (0.0) No. of Patients (%)"}, {"measurement": "Treatment-Emergent AE: NERVOUS SYSTEM DISORDERS, Any Preferred Term", "setting": "max severity Mild", "result": "2 (4.0) No. of Patients (%)"}, {"measurement": "Treatment-Emergent AE: PHARYNGOLARYNGEAL PAIN", "setting": "max severity Mild", "result": "0 (0.0) No. of Patients (%)"}, {"measurement": "Treatment-Emergent AE: RESPIRATORY, THORACIC AND MEDIASTINAL DISORDERS, Any Preferred Term", "setting": "max severity Mild", "result": "0 (0.0) No. of Patients (%)"}, {"measurement": "Treatment-Emergent AE: STOMACH DISCOMFORT", "setting": "max severity Mild", "result": "0 (0.0) No. of Patients (%)"}, {"measurement": "Treatment-Emergent AE: Any Adverse Event", "setting": "max severity Moderate", "result": "1 (2.0) No. of Patients (%)"}, {"measurement": "Treatment-Emergent AE: DRY MOUTH", "setting": "max severity Moderate", "result": "0 (0.0) No. of Patients (%)"}, {"measurement": "Treatment-Emergent AE: DYSGEUSIA", "setting": "max severity Moderate", "result": "0 (0.0) No. of Patients (%)"}, {"measurement": "Treatment-Emergent AE: EAR AND LABYRINTH DISORDERS, Any Preferred Term", "setting": "max severity Moderate", "result": "0 (0.0) No. of Patients (%)"}, {"measurement": "Treatment-Emergent AE: EAR PAIN", "setting": "max severity Moderate", "result": "0 (0.0) No. of Patients (%)"}, {"measurement": "Treatment-Emergent AE: EPISTAXIS", "setting": "max severity Moderate", "result": "0 (0.0) No. of Patients (%)"}, {"measurement": "Treatment-Emergent AE: GASTROINTESTINAL DISORDERS, Any Preferred Term", "setting": "max severity Moderate", "result": "1 (2.0) No. of Patients (%)"}, {"measurement": "Treatment-Emergent AE: HEADACHE", "setting": "max severity Moderate", "result": "0 (0.0) No. of Patients (%)"}, {"measurement": "Treatment-Emergent AE: MUSCULOSKELETAL AND CONNECTIVE TISSUE DISORDERS, Any Preferred Term", "setting": "max severity Moderate", "result": "0 (0.0) No. of Patients (%)"}, {"measurement": "Treatment-Emergent AE: MYALGIA", "setting": "max severity Moderate", "result": "0 (0.0) No. of Patients (%)"}, {"measurement": "Treatment-Emergent AE: NASAL DISCOMFORT", "setting": "max severity Moderate", "result": "0 (0.0) No. of Patients (%)"}, {"measurement": "Treatment-Emergent AE: NECK PAIN", "setting": "max severity Moderate", "result": "0 (0.0) No. of Patients (%)"}, {"measurement": "Treatment-Emergent AE: NERVOUS SYSTEM DISORDERS, Any Preferred Term", "setting": "max severity Moderate", "result": "0 (0.0) No. of Patients (%)"}, {"measurement": "Treatment-Emergent AE: PHARYNGOLARYNGEAL PAIN", "setting": "max severity Moderate", "result": "0 (0.0) No. of Patients (%)"}, {"measurement": "Treatment-Emergent AE: RESPIRATORY, THORACIC AND MEDIASTINAL DISORDERS, Any Preferred Term", "setting": "max severity Moderate", "result": "0 (0.0) No. of Patients (%)"}, {"measurement": "Treatment-Emergent AE: STOMACH DISCOMFORT", "setting": "max severity Moderate", "result": "1 (2.0) No. of Patients (%)"}, {"measurement": "Treatment-Emergent AE: Any Adverse Event", "setting": "max severity Severe", "result": "0 (0.0) No. of Patients (%)"}, {"measurement": "Treatment-Emergent AE: DRY MOUTH", "setting": "max severity Severe", "result": "0 (0.0) No. of Patients (%)"}, {"measurement": "Treatment-Emergent AE: DYSGEUSIA", "setting": "max severity Severe", "result": "0 (0.0) No. of Patients (%)"}, {"measurement": "Treatment-Emergent AE: EAR AND LABYRINTH DISORDERS, Any Preferred Term", "setting": "max severity Severe", "result": "0 (0.0) No. of Patients (%)"}, {"measurement": "Treatment-Emergent AE: EAR PAIN", "setting": "max severity Severe", "result": "0 (0.0) No. of Patients (%)"}, {"measurement": "Treatment-Emergent AE: EPISTAXIS", "setting": "max severity Severe", "result": "0 (0.0) No. of Patients (%)"}, {"measurement": "Treatment-Emergent AE: GASTROINTESTINAL DISORDERS, Any Preferred Term", "setting": "max severity Severe", "result": "0 (0.0) No. of Patients (%)"}, {"measurement": "Treatment-Emergent AE: HEADACHE", "setting": "max severity Severe", "result": "0 (0.0) No. of Patients (%)"}, {"measurement": "Treatment-Emergent AE: MUSCULOSKELETAL AND CONNECTIVE TISSUE DISORDERS, Any Preferred Term", "setting": "max severity Severe", "result": "0 (0.0) No. of Patients (%)"}, {"measurement": "Treatment-Emergent AE: MYALGIA", "setting": "max severity Severe", "result": "0 (0.0) No. of Patients (%)"}, {"measurement": "Treatment-Emergent AE: NASAL DISCOMFORT", "setting": "max severity Severe", "result": "0 (0.0) No. of Patients (%)"}, {"measurement": "Treatment-Emergent AE: NECK PAIN", "setting": "max severity Severe", "result": "0 (0.0) No. of Patients (%)"}, {"measurement": "Treatment-Emergent AE: NERVOUS SYSTEM DISORDERS, Any Preferred Term", "setting": "max severity Severe", "result": "0 (0.0) No. of Patients (%)"}, {"measurement": "Treatment-Emergent AE: PHARYNGOLARYNGEAL PAIN", "setting": "max severity Severe", "result": "0 (0.0) No. of Patients (%)"}, {"measurement": "Treatment-Emergent AE: RESPIRATORY, THORACIC AND MEDIASTINAL DISORDERS, Any Preferred Term", "setting": "max severity Severe", "result": "0 (0.0) No. of Patients (%)"}, {"measurement": "Treatment-Emergent AE: STOMACH DISCOMFORT", "setting": "max severity Severe", "result": "0 (0.0) No. of Patients (%)"}, {"measurement": "adverse event: bitter taste", "setting": "share of treatment group", "result": 2.0, "unit": "%"}, {"measurement": "adverse event: headache", "setting": "share of treatment group", "result": 4.0, "unit": "%"}]}
